Tests used:
[1] = test system: LB1158 CD4+ clone 22; assay: IFN-γ production by CD4+ clone 22 stimulated with peptide- or protein-pulsed EBV-B cells; format: cell-based, human; conditions: for recognition of short peptide by clone 22: conclusion from Table V; for IFN-γ production by clone 22: HLA-DR13 EBV-B cells
Procedure: (§1) In order to confirm the efficacy of this protocol, dendritic cells were fed with the MAGE-3 protein, using conditions described above, to stimulate autologous CD4^+ T lymphocytes from hemochromatosis patient LB1158 or from melanoma patient 7002. After four restimulations, the specific production of IFN-γ by an aliquot of each of the microcultures stimulated with the autologous EBV-B cells loaded with MAGE-A3 were tested on day 35 for patient LB1158 and day 37 for patient 7002. For each individual, one positive microculture was cloned using autologous EBV-B cells as stimulating cells, either retrotransduced with MFG Ii MAGE-A3 for LB1158, or fed with protein MAGE-A3 for patient 7002. […] Specifically, autologous EBV-B cells were incubated for 20 h in the presence of 20 μg/ml of recombinant His-MAGE-A3 protein. Clone 22 (2500 cells) was incubated overnight with 5000 MAGE-A3 loaded EBV-B cells in round botton microwells in the presence or absence of monoclonal antibodies which recognize HLA-A,B,C (W6/32) or HLA-DR (2B6). IFN-γ secretion was measured after 20 h by ELISA (FIG. 15A).
(§2) Peptides corresponding to parts of MAGE-A3 (e.g., MAGE107-122, MAGE111-126, MAGE115-130, MAGE119-134) were tested for recognition by clone 2 and 22. HLA-DR13 EBV-B cells were pulsed for 2 h with different concentrations of these peptides. Clones 2 and 37 (2500 cells) were incubated with 5000 peptide pulsed cells in round-bottomed microwells for 20 h and assayed for IFN-γ production.
(§3) Autologous or allogeneic EBV-B cells were pulsed for 2 h with 1 μg/ml MAGE-A3119-134 peptide, and then washed. Clones 2 or 22 were incubated with 5000 peptide-pulsed EBV-B cells in round-bottomed microwells for 20 h and the clones' reactivity to the EBV-B cells was measured by ELISA as IFN-γ secretion. Experiments were performed in triplicate.
(§4) Unlike HLA-class I-restricted peptides, class II-restricted peptides usually vary in length and tolerate extensions at both the amino and carboxy termini, because they are not fixed by their ends in the groove. It is therefore difficult to define precisely the length of the antigenic peptide. Therefore a large number of MAGE-A3 peptides were tested at different concentrations (Tables IV and V). […] 2500 cells of clone 37 were then cocultured for 20 h in round-bottomed microwells with 5000 peptide-pulsed cells. IFN-γ released in the supernatant of the cocultures was measured in an ELISA assay. The experiments were performed in triplicate. […] Clones 2 and 22 (2500 cells) were then cocultured for 20 h in round-bottomed microwells with 5000 peptide-pulsed cells. IFN-γ released in the supernatant of the cocultures was measured in an ELISA assay. The experiments was performed twice in duplicates.

[2] = test system: 7002 CD4+ clone 2; assay: IFN-γ production by CD4+ clone 2 stimulated with peptide- or protein-pulsed EBV-B cells; format: cell-based, human; conditions: for recognition of short peptide by clone 2: conclusion from Table V; for IFN-γ production by clone 2: HLA-DR13 EBV-B cells
Procedure: as §1, §2, §3, §4

[3] = peptide concentration 100 ng/ml
[4] = peptide concentration 300 ng/ml
[5] = peptide concentration 1000 ng/ml

| Molecule | recognition of short peptide by clone 22 [1] | IFN-γ production by clone 22 ([1]; peptide concentration 1 ng/ml) [pg/mL] | IFN-γ production by clone 22 ([1]; peptide concentration 3 ng/ml) [pg/mL] | IFN-γ production by clone 22 ([1]; peptide concentration 10 ng/ml) [pg/mL] | IFN-γ production by clone 22 ([1]; peptide concentration 30 ng/ml) [pg/mL] | IFN-γ production by clone 22 [1, 3] [pg/mL] | IFN-γ production by clone 22 [1, 4] [pg/mL] | IFN-γ production by clone 22 [1, 5] [pg/mL] | recognition of short peptide by clone 2 [2] | IFN-γ production by clone 2 ([2]; peptide concentration 1 ng/ml) [pg/mL] | IFN-γ production by clone 2 ([2]; peptide concentration 3 ng/ml) [pg/mL] | IFN-γ production by clone 2 ([2]; peptide concentration 10 ng/ml) [pg/mL] | IFN-γ production by clone 2 ([2]; peptide concentration 30 ng/ml) [pg/mL] | IFN-γ production by clone 2 [2, 3] [pg/mL] | IFN-γ production by clone 2 [2, 4] [pg/mL] | IFN-γ production by clone 2 [2, 5] [pg/mL] | stimulation of clone 22 by protein-loaded autologous EBV-B cells [1] | stimulation of clone 2 by protein-loaded autologous EBV-B cells [2] |
| --- | --- | --- | --- | --- | --- | --- | --- | --- | --- | --- | --- | --- | --- | --- | --- | --- | --- | --- |
| FLLLKYRAREPVT (listed as Homo sapiens) | well recognized | 291 | 584 | 1099 | 1635 | 1510 | 1834 | 2183 | well recognized | 114 | 370 | 1437 | 2003 | 2951 | 2860 | 3079 |  |  |
| FLLLKYRAREPVTK (listed as Homo sapiens) |  | 0 | 0 | 1 | 10 | 28 | 115 | 453 |  | 0 | 0 | 0 | 0 | 85 | 0 | 0 |  |  |
| FLLLKYRAREPVTKA (listed as Homo sapiens) |  | 283 | 1294 | 1619 | 1775 | 1854 | 1965 | 2180 |  | 245 | 865 | 1753 | 2713 | 2871 | 3354 | 3314 |  |  |
| KYRAREPVTKAE (listed as Homo sapiens) |  | 0 | 5 | 0 | 5 | 16 | 135 | 542 |  | 0 | 0 | 0 | 0 | 0 | 0 | 50 |  |  |
| LKYRAREPVTKAE (listed as Homo sapiens) |  | 0 | 25 | 223 | 567 | 1029 | 1475 | 2004 |  | 0 | 0 | 79 | 386 | 1324 | 2544 | 2755 |  |  |
| LLKYRAREPVTKAE (listed as Homo sapiens) | well recognized | 262 | 638 | 1073 | 1651 | 1736 | 1826 | 2225 | well recognized | 40 | 303 | 1419 | 2012 | 2918 | 3186 | 3078 |  |  |
| LLLKYRAREPVTKAE (listed as Homo sapiens) |  | 718 | 965 | 1440 | 1832 | 1679 | 1739 | 2214 |  | 169 | 639 | 2028 | 2532 | 2857 | 3124 | 3033 |  |  |
| MAGE-A1 recombinant protein: MAGE-A1 recombinant protein used to load autologous EBV-B cells (protein, UniProt P43355 1-309, looked up) Melanoma-associated antigen 1: MSLEQRSLHCKPEEALEAQQEALGLVCVQAATSSSSPLVLGTLEEVPTAGSTDPPQSPQGASAFPTTINFTRQRQPSEGSSSREEEGPSTSCILESLFRAVITKKVADLVGFLLLKYRAREPVTKAEMLESVIKNYKHCFPEIFGKASESLQLVFGIDVKEADPTGHSYVLVTCLGLSYDGLLGDNQIMPKTGFLIIVLVMIAMEGGHAPEEEIWEELSVMEVYDGREHSAYGEPRKLLTQDLVQEKYLEYRQVPDSDPARYEFLWGPRALAETSYVKVLEYVIKVSARVRFFFPSLREAALREEEEGV |  |  |  |  |  |  |  |  |  |  |  |  |  |  |  |  | stimulated | stimulated |

Reference: US6716809B1, “Mage-A3 peptides presented by HLA class molecules” (priority 1997, dated 2004)
